Biological target: T1, human kidney renin (Homo sapiens, UniProt P00797)
T1 construct: Human renin is prepared from human kidney; from tissue; host or cells: human kidney
T1 sequence (P00797 67-406): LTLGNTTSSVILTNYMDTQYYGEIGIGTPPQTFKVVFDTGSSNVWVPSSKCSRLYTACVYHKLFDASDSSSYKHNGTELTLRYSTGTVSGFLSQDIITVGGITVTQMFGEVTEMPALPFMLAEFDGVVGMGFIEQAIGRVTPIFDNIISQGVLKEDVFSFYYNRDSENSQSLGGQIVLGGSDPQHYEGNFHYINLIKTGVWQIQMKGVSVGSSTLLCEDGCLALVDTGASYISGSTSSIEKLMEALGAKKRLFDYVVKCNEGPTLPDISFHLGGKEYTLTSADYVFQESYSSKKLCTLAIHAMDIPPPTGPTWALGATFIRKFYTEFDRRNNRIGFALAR
Assay: Radioimmunoassay screen for renin inhibitors (angiotensin I generation, then RIA quantitation)
Type: biochemical
Conditions: purified human plasma angiotensinogen substrate, maleate buffer pH 6.0, 1 hour at 37° C.; read-out: Renin Inhibition IC50 Molar Concentration
Experimental: Radioimmunoassay Screen For Renin Inhibitors
The in vitro method for the screening of anti-renin compounds involves, first, angiotensin I generation, and second, the quantitation of the angiotensin I produced by radioimmunoassay.
The incubation medium consisted of 20 μl of purified human plasma angiotensinogen; (1) 10 μl of human kidney renin; (2) 5 μl of phenylmethylsulfonyl fluoride; 10 μl of disodium EDTA (10 mM); 10 μl of antirenin compound (5×10^-3 M, 5×10^-4 M, 5×10^-5 M) in dimethylformamide, or ethanol and a suitable amount of maleate buffer (77 mM, pH 6.0) to make a final volume of 500 μl . The reaction mixture is incubated for one hour at 37° C. and the enzymatic reaction is stopped by placing the tube in ice-cold water. The angiotensin I generated during the incubation is measured by a radioimmunoassay plasma renin activity kit (Clinical Assays, Inc.).
Radioimmunoassay Procedure
The incubation medium consisted of either 100 μl aliquots of the above reaction mixture or a standard amount of angiotensin I; 1000 μl of phosphate buffer (100 mM, pH 7.6) and 100 μl of (^125 I) angiotensin in a gamma-coat tube. After three hours of incubation at room temperature, the tubes are decanted, and the radioactivity of each tube is determined in a gamma counter. Duplicate determinations are performed for each incubation. The results are expressed in ng of angiotensin I generated per ml of generation medium per hour of incubation (ng/AI/ml/hr).
The results of this test on representative compounds of this invention appear in Table I, expressed as an IC50.
(1) The human plasma angiotensinogen derived from the blood of a person receiving oral contraceptive pills is purified by chromatography on a pepstatinaminohexyl-agarose column.
(2) Human renin is prepared from human kidney.

Row | Substance | IC50 [nM]
1 | [S-(R*,R*)]-4,7-anhydro-1-cyclohexyl-1,2,5,6-tetradeoxy-2-[[4-methyl-2-[[4-[3-[(methylamino)sulfonyl]phenyl]-1,4-dioxo-2-(phenylmethyl)buyhl]amino]-1-oxopentyl]amino]-L-arabino-Heptitol | 71
2 | [S-(R*,S*)]-1-cyclohexyl-2-[[2-[[1,4-dioxo-4-phenyl-2-(phenylmethyl)butyl]amino]-4-methyl-1-oxopentyl]amino]-4,7-epithio-1,2,4,5,6,7-hexadeoxy-L-arabino-Heptitol, (R and S)-S-oxide | 8.3
3 | [S-(R*,R*)]4,7-anhydro-2-[[2-[[4-(2-benzofuranyl)-1,4-dioxo-2-(phenylmethyl)butyl]amino]-3-(1H-imidazol-4-yl)-1-oxopropyl]amino]-1-cyclohexyl-1,2,5,6-tetradeoxy-L-arabino-Heptitol | 42
4 | [S-(R*,S*)]-4,7-anhydro-1-cyclohexyl-1,2,5,6-tetradoxy-2-[[2-[[1,4-dioxo-4-phenyl-2-(phenylmethyl)butyl]amino]-4-methyl-1-oxopentyl]amino]-D-xylo-Heptitol | 470
5 | [S-(R*,S*)]-1-cyclohexyl-1,2,4,5,6,7-hexadeoxy-2-[[2-[[1,4-dioxo-4-phenyl-2-(phenylmethyl)butyl]amino]-4-methyl-1-oxopentyl]amino]-4,7-epithio-L-arabino-Heptitol, [R (or S)]-S-oxide | 12

Substances with a lower IC50, results first:

Row | IC50 [nM] | Substance
6 | 2.4 | [S-(R*,S*)]-4,7-anhydro-1-cyclohexyl-1,2,5,6-tetradeoxy-2-[[4-methyl-2-[[4-[3-[(methylamino)sulfonyl]phenyl]-1,4-dioxo-2-(phenylmethyl)butyl]amino]-1-oxopentyl]amino]-L-arabino-Heptitol
7 | 1.5 | [S-(R*,S*)[-4,7-anhydro-2-[[2-[[4-(2-benzofuranyl)-1,4-dioxo-2-(phenylmethyl)butyl]amino]-3-(1H-imidazol-4-yl)-1-oxopropyl]amino]-1-cyclohexyl-1,2,5,6-tetradeosy-L-arabino-Heptitol
8 | 0.08 | [S-(R*,S*)]-4,7-anhydro-1-cyclohexyl-1,2,5,6-tetradeoxy-2-[[2-[[1,4-dioxo-2-(phenylmethyl)-4-(2-thienyl)butyl]amino]-4-methyl-1-oxo-pentyl]amino]-L-arabino-Heptitol
